Several values for one entry are separate records, joined by “and”; a condition that tells them apart may be missing. Equal entries are not always repeated.
Experiments:
[1] = Biodistribution and pharmacokinetic constants of [^18F]FP-CIT in normal mice; assay type: in vivo, C57BL/6 mice; settings: for AUC / CL / Cmax / T1/2 / Tmax: normal mice (group I), 3.7 MBq i.v.
Protocol: Male C57BL/6 mice (group I) were anesthetized with 2% isoflurane in oxygen, and 3.7 MBq of [^18F]FP-CIT was intravenously injected via the tail vein. Mice were sacrificed at different time points (1, 5, 10, 30, 60, and 120 min after injection, n = 4 each), and the tissues of interest (blood, muscle, heart, lung, liver, spleen, stomach, intestine, kidney, bone, cerebellum, striatum, and remaining brain tissues) were harvested, weighed, and measured for radioactivity using a gamma counter (Wizard 1480; PerkinElmer, Waltham, MA, USA). The uptake in each tissue sample was expressed as a percentage of the injected dose per gram (%ID/g). The pharmacokinetic constants of [^18F]FP-CIT in normal C57BL/6 mice were calculated from the %ID/g results of its biodistribution.

[2] = Excretion study of [^18F]FP-CIT in urine and feces of normal mice; assay type: in vivo, C57BL/6 mice
Protocol: For excretion analysis, male C57BL/6 mice (group II) were injected with 37 MBq of [^18F]FP-CIT in the same way described above. The mice were kept in separate cages for urine and feces collection at different time points (1, 2, 3, 4, 5, and 6 h after injection; n = 6 each). Six pieces of absorbent paper were placed in the cages to ensure that all urine samples were absorbed into the paper when the test animals excreted the urine. Fecal samples were collected using felt. The urine remaining in the bladder was collected using a syringe after the mice were sacrificed at the endpoints. The samples collected at each time point were measured using a dose calibrator (CRC-127R; Capintec, Florham Park, NJ, USA). Decay correction of the radioactivity indicated on the dose calibrator at the relevant time points was performed.

[3] = 1 min post-injection (highest uptake), normal mice

COC(=O)[C@H]1[C@@H](c2ccc(I)cc2)C[C@@H]2CC[C@H]1N2CCCF [[^18F]FP-CIT, N-(3-fluoropropyl)-2β-carboxymethoxy-3β-(4-iodophenyl) nortropane]
uptake in cerebellum [1, 3]: 21.42 ± 12.19 %ID/g
uptake in striatum [1, 3]: 23.50 ± 12.46 %ID/g
uptake in the rest of the brain [1, 3]: 20.06 ± 12.12 %ID/g
uptake in the liver ([1]; 60 min after injection (highest uptake), normal mice): 30.82 ± 1.64 %ID/g
AUC ([1]; blood): 95.43 ± 4.34 %ID*min/g
CL ([1]; blood): 1.05 ± 0.05 cc/min
Cmax ([1]; blood): 2.68 ± 0.12 %ID/g
T1/2 ([1]; blood): 11.12 ± 1.83 min
Tmax ([1]; blood): 1.00 ± 0.00 min
AUC ([1]; bone): 636.73 ± 25.74 %ID*min/g
CL ([1]; bone): 0.16 ± 0.01 cc/min
Cmax ([1]; bone): 9.55 ± 1.48 %ID/g
T1/2 ([1]; bone): 114.55 ± 23.62 min
Tmax ([1]; bone): 120.00 ± 0.00 min
time of maximum concentration ([1]; brain, normal mice): 1 min
AUC ([1]; cerebellum): 174.48 ± 20.00 %ID*min/g
CL ([1]; cerebellum): 0.58 ± 0.07 cc/min
Cmax ([1]; cerebellum): 10.97 ± 9.59 %ID/g
T1/2 ([1]; cerebellum): 17.30 ± 17.89 min
Tmax ([1]; cerebellum): 1.00 ± 0.00 min
AUC ([1]; heart): 180.65 ± 13.75 %ID*min/g
CL ([1]; heart): 0.56 ± 0.04 cc/min
Cmax ([1]; heart): 7.71 ± 0.74 %ID/g
T1/2 ([1]; heart): 62.29 ± 4.86 min
Tmax ([1]; heart): 1.00 ± 0.00 min
AUC ([1]; intestine): 614.35 ± 28.65 %ID*min/g
CL ([1]; intestine): 0.16 ± 0.01 cc/min
Cmax ([1]; intestine): 6.00 ± 0.47 %ID/g
T1/2 ([1]; intestine): 497.98 ± 350.19 min
Tmax ([1]; intestine): 19.00 ± 27.58 min
AUC ([1]; kidney): 680.50 ± 45.28 %ID*min/g
CL ([1]; kidney): 0.15 ± 0.01 cc/min
Cmax ([1]; kidney): 31.96 ± 5.10 %ID/g
T1/2 ([1]; kidney): 89.82 ± 11.39 min
Tmax ([1]; kidney): 1.00 ± 0.00 min
AUC ([1]; liver): 3095.50 ± 181.39 %ID*min/g
CL ([1]; liver): 0.03 ± 0.00 cc/min
T1/2 ([1]; liver): 26.50 ± 4.4 min
Tmax ([1]; liver): 4.00 ± 2.00 min
AUC ([1]; lung): 408.70 ± 65.06 %ID*min/g
CL ([1]; lung): 0.25 ± 0.04 cc/min
Cmax ([1]; lung): 21.31 ± 3.18 %ID/g
T1/2 ([1]; lung): 79.46 ± 10.66 min
Tmax ([1]; lung): 1.00 ± 0.00 min
uptake in the intestine ([1]; maintained for 120 min after injection, normal mice): approximately 5 %ID/g
AUC ([1]; muscle): 150.08 ± 13.03 %ID*min/g
CL ([1]; muscle): 0.67 ± 0.06 cc/min
Cmax ([1]; muscle): 2.42 ± 0.98 %ID/g
T1/2 ([1]; muscle): 137.84 ± 198.01 min
Tmax ([1]; muscle): 5.00 ± 0.00 min
AUC ([1]; rest of the brain): 244.03 ± 34.63 %ID*min/g
CL ([1]; rest of the brain): 0.42 ± 0.06 cc/min
Cmax ([1]; rest of the brain): 17.19 ± 16.17 %ID/g
T1/2 ([1]; rest of the brain): 55.64 ± 29.71 min
Tmax ([1]; rest of the brain): 1.00 ± 0.00 min
AUC ([1]; spleen): 288.90 ± 39.35 %ID*min/g
CL ([1]; spleen): 0.35 ± 0.05 cc/min
Cmax ([1]; spleen): 14.52 ± 1.35 %ID/g
T1/2 ([1]; spleen): 81.36 ± 16.91 min
Tmax ([1]; spleen): 3.00 ± 2.31 min
AUC ([1]; stomach): 444.70 ± 47.17 %ID*min/g
CL ([1]; stomach): 0.23 ± 0.02 cc/min
Cmax ([1]; stomach): 7.14 ± 1.99 %ID/g
T1/2 ([1]; stomach): 177.39 ± 36.93 min
Tmax ([1]; stomach): 7.50 ± 2.89 min
AUC ([1]; striatum): 223.30 ± 37.82 %ID*min/g
CL ([1]; striatum): 0.46 ± 0.08 cc/min
T1/2 ([1]; striatum): 39.62 ± 18.71 min
Tmax ([1]; striatum): 1.00 ± 0.00 min
Accumulated excretion radioactivity (Decay corrected) ([2]; 1 h, Mean ± SD of 6 mice (group II)): 0.03 ± 0.04 mCi
Accumulated excretion radioactivity (Decay corrected) ([2]; 1 h, individual mice no. 1-6 (group II), 37 MBq i.v.): 0.00 mCi and 0.01 mCi and 0.10 mCi and 0.03 mCi and 0.02 mCi
Accumulated excretion radioactivity (Decay corrected) ([2]; 2 h, Mean ± SD of 6 mice (group II)): 0.05 ± 0.04 mCi
Accumulated excretion radioactivity (Decay corrected) ([2]; 2 h, individual mice no. 1-6 (group II), 37 MBq i.v.): 0.07 mCi and 0.01 mCi and 0.11 mCi and 0.02 mCi and 0.05 mCi
Accumulated excretion radioactivity (Decay corrected) ([2]; 3 h, Mean ± SD of 6 mice (group II)): 0.06 ± 0.05 mCi
Accumulated excretion radioactivity (Decay corrected) ([2]; 3 h, individual mice no. 1-6 (group II), 37 MBq i.v.): 0.07 mCi and 0.01 mCi and 0.15 mCi and 0.02 mCi and 0.08 mCi and 0.05 mCi
Accumulated excretion radioactivity (Decay corrected) ([2]; 4 h, Mean ± SD of 6 mice (group II)): 0.08 ± 0.06 mCi
Accumulated excretion radioactivity (Decay corrected) ([2]; 4 h, individual mice no. 1-6 (group II), 37 MBq i.v.): 0.11 mCi and 0.01 mCi and 0.16 mCi and 0.02 mCi and 0.09 mCi and 0.08 mCi
Accumulated excretion radioactivity (Decay corrected) ([2]; 5 h, Mean ± SD of 6 mice (group II)): 0.09 ± 0.05 mCi
Accumulated excretion radioactivity (Decay corrected) ([2]; 5 h, individual mice no. 1-6 (group II), 37 MBq i.v.): 0.11 mCi and 0.04 mCi and 0.17 mCi and 0.02 mCi and 0.09 mCi and 0.08 mCi
Accumulated excretion radioactivity (Decay corrected) ([2]; 6 h, Mean ± SD of 6 mice (group II)): 0.09 ± 0.05 mCi
Accumulated excretion radioactivity (Decay corrected) ([2]; 6 h, individual mice no. 1-6 (group II), 37 MBq i.v.): 0.12 mCi and 0.04 mCi and 0.17 mCi and 0.02 mCi and 0.10 mCi
Excretion ratio ([2]; till 6 h, individual mice no. 1-6 (group II)): 26.99% and 14.17% and 31.89% and 6.20% and 22.94% and 26.58%
